From PMC11123841, “Discovery and Synthesis of Hydroxy-L-Proline Blockers of the Neutral Amino Acid Transporters SLC1A4 (ASCT1) and SLC1A5 (ASCT2)” (Molecules, 2024) come the findings set out here.

“And” between values parts separate entries of the source, which are not always exact repeats. Equal entries are not always repeated. Where two headings read alike, the source gives them in different places. A value given as a limit tells only on which side of the number the result lay.

Usually Ki stands for the dissociation constant of the complex between target and ligand, obtained from inhibition or displacement. In general, Km refers to the substrate concentration at which the rate is half of its maximum.

The target of one data set is T1, mSLC1A5 (Mus musculus, UniProt P51912).
T1 construct: expressed in transfected cells; host or cells: Xenopus laevis oocytes (cRNA injection)
T1 sequence (P51912 1-553): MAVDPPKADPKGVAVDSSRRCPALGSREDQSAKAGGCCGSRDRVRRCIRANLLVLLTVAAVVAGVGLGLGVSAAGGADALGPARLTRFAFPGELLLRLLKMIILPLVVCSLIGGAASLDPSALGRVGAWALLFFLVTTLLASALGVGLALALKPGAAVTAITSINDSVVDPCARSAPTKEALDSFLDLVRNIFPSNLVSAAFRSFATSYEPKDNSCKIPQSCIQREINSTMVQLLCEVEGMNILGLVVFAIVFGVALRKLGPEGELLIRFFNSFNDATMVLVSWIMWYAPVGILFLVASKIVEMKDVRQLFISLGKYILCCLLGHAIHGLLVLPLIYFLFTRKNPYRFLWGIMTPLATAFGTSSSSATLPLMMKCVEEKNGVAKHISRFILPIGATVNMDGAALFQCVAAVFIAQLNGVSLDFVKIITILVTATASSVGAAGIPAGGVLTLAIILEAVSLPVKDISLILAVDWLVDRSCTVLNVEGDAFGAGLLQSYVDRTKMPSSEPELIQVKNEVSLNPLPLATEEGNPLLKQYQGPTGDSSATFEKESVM
In words: TEVC block of anion leak conductance in oocytes. The data set is classed as cell-based. The source says:
(§1) The currents induced by substrates and blocked by hydroxyproline analogs shared a reversal potential shown in the current/voltage relationship consistent with the conductance originating from the same ion pore (Figure 3, inset). […] The observed dose–response relationships are independent of competing substrates, and thus provide a direct measure of the equilibrium inhibition constant (Ki). Each synthetic hydroxyproline analog was functionally assessed for its capacity to inhibit SLC1A4 and SLC1A5 leak currents with affinities reported in Table 1 as determined or approximated Ki.
(§2) Two-electrode voltage clamp (TEVC) transporter currents were recorded with a GeneClamp 500 amplifier and Digidata 1320A analog–digital interface (Molecular Devices, San Jose, CA, USA). Electrodes (0.2–1.0 MΩ) were filled with 3M KCl and the recording chamber was grounded with an agar bridge. Data were acquired with Axograph (v1.7.6) and LabChart (v7) and analyzed with Kaleidagraph software (v4.1) (Synergy, Reading, PA, USA). Uncoupled anion currents associated with the transport of substrate and block of SLC1A4 or SLC1A5 mediated leak conductance were recorded in the presence of Ringer with 50% substitution of NaCl by NaSCN to amplify the non-transported anion conductance.
(§3) Figure 3 AHPCs block a leak current in SLC1A4 and SLC1A5. […] Inset (A): The current and voltage relationship for SLC1A4 currents activated by Ala or blocked by 14b are determined by subtracting voltage jumps in buffer.

Another data set deals with T2, SLC1A4 (Homo sapiens, UniProt P43007).
T2 construct: expressed in transfected cells; host or cells: Xenopus laevis oocytes (cRNA injection)
T2 sequence (P43007 1-532): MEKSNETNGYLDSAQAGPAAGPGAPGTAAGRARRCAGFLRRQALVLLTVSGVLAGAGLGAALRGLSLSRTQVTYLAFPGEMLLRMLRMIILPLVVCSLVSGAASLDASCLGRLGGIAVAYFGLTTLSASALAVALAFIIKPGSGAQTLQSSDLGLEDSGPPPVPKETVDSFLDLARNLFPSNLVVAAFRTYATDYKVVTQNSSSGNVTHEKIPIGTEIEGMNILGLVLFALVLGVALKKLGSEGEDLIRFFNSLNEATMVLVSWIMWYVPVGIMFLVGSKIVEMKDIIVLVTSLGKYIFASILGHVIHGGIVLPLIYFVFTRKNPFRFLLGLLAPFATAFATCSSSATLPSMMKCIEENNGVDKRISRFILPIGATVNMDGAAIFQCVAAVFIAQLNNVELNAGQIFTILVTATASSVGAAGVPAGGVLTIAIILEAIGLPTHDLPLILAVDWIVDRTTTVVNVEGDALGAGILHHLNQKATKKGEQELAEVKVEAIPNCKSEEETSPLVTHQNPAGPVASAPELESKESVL
In words: TEVC block of anion leak conductance in oocytes. In kind it is cell-based.
Description: as §1, §2, §3

Substrate in data set [1]: O=C(O)[C@H]1NCC[C@@H]1O
The experiment in a line: TEVC substrate-induced SCN- anion currents in Xenopus oocytes. In kind it is cell-based, human. As to conditions: other: SLC1A4; substrate activated anion currents, TEVC −30 mV, 50 mM NaSCN, Michaelis-Menten fit.

Substrate in data set [2]: O=C(O)[C@@H]1C[C@@H](O)CN1
The description is as above. In kind it is cell-based, human. As to conditions: other: SLC1A4; substrate activated anion currents, TEVC −30 mV, 50 mM NaSCN, Michaelis-Menten fit.

Substrate in data set [3]: C[C@H](N)C(=O)O
In words: cells, lysate or membranes. As to conditions: other: SLC1A4; substrate activated anion currents, TEVC −30 mV, 50 mM NaSCN, Michaelis-Menten fit.

Substrate in data set [4]: NC(=O)CC[C@H](N)C(=O)O
The experiment in a line: TEVC substrate-induced SCN- anion currents in Xenopus oocytes. In kind it is cell-based, mouse. As to conditions: other: SLC1A5; substrate activated anion currents, TEVC −30 mV, 50 mM NaSCN, Michaelis-Menten fit.

Substrate in data set [5]: O=C(O)[C@H]1NCC[C@@H]1O
The data set is described as above. The data set is classed as cell-based, mouse. As to conditions: other: SLC1A5; substrate activated anion currents, TEVC −30 mV, 50 mM NaSCN, Michaelis-Menten fit.

Substrate in data set [6]: O=C(O)[C@@H]1C[C@@H](O)CN1
The data set is described as above. The data set is classed as cell-based, mouse. As to conditions: other: SLC1A5; substrate activated anion currents, TEVC −30 mV, 50 mM NaSCN, Michaelis-Menten fit.

[7] abbreviates: mSLC1A5, from dose–response of blocked anion conductance, compounds tested only once without standard error, read-out: SLC1A5 Ki.
The mark [8] stands for this setting: from dose–response of blocked anion conductance, compounds tested only once without standard error, read-out: SLC1A4 Ki.

For the molecule `CC1CNC(C(=O)O)C1O` [10a, trans-3-hydroxy-cis-4-methyl-L-proline], the “block of anion leak conductance / inhibition” value at mSLC1A5 (SLC1A5) and on SLC1A4 (SLC1A4) was “no inhibition of transport” each time. In addition, the inhibition constant Ki on mSLC1A5 (setting [7]) amounted to 1150 ± 283 µM; at SLC1A4 (setting [8]), 1050 ± 110 µM.

Take `O=C(O)[C@H]1NC[C@@H](OCc2ccccc2)[C@@H]1O` [14c]: the “block of anion leak conductance / inhibition” value at mSLC1A5 (SLC1A5) and on SLC1A4 (SLC1A4) was “block the anion conductance” throughout. The “fold higher affinity than 12a” value at mSLC1A5 (SLC1A5) and on SLC1A4 (SLC1A4) was ~ 6 fold throughout. Moreover, the inhibition constant (Ki) was < 100 µM on mSLC1A5 (SLC1A5, read-out: Ki) and < 100 µM at SLC1A4 (SLC1A4, read-out: Ki).

Take `O=C(O)C1NCC(O)C1Oc1ccccc1` (stereo not drawn) [12b]: the inhibition constant Ki on mSLC1A5 (setting [7]) worked out at 502 ± 110 µM; on SLC1A4 (setting [8]), 594 ± 191 µM.

B1: SLC1A4 (hASCT1) (Homo sapiens) (protein)
chain: MEKSNETNGYLDSAQAGPAAGPGAPGTAAGRARRCAGFLRRQALVLLTVSGVLAGAGLGAALRGLSLSRTQVTYLAFPGEMLLRMLRMIILPLVVCSLVSGAASLDASCLGRLGGIAVAYFGLTTLSASALAVALAFIIKPGSGAQTLQSSDLGLEDSGPPPVPKETVDSFLDLARNLFPSNLVVAAFRTYATDYKVVTQNSSSGNVTHEKIPIGTEIEGMNILGLVLFALVLGVALKKLGSEGEDLIRFFNSLNEATMVLVSWIMWYVPVGIMFLVGSKIVEMKDIIVLVTSLGKYIFASILGHVIHGGIVLPLIYFVFTRKNPFRFLLGLLAPFATAFATCSSSATLPSMMKCIEENNGVDKRISRFILPIGATVNMDGAAIFQCVAAVFIAQLNNVELNAGQIFTILVTATASSVGAAGVPAGGVLTIAIILEAIGLPTHDLPLILAVDWIVDRTTTVVNVEGDALGAGILHHLNQKATKKGEQELAEVKVEAIPNCKSEEETSPLVTHQNPAGPVASAPELESKESVL
notes: expressed in transfected cells; host or cells: Xenopus laevis oocytes (cRNA injection)
B1: the Km in data set [1] is 13.5 ± 1.8 µM; in data set [2], 17.1 ± 0.8 µM; in data set [3] it was 40.0 ± 1.8 µM and 40.3 µM.

B2: SLC1A5 (mASCT2) (Mus musculus) (protein)
chain: MAVDPPKADPKGVAVDSSRRCPALGSREDQSAKAGGCCGSRDRVRRCIRANLLVLLTVAAVVAGVGLGLGVSAAGGADALGPARLTRFAFPGELLLRLLKMIILPLVVCSLIGGAASLDPSALGRVGAWALLFFLVTTLLASALGVGLALALKPGAAVTAITSINDSVVDPCARSAPTKEALDSFLDLVRNIFPSNLVSAAFRSFATSYEPKDNSCKIPQSCIQREINSTMVQLLCEVEGMNILGLVVFAIVFGVALRKLGPEGELLIRFFNSFNDATMVLVSWIMWYAPVGILFLVASKIVEMKDVRQLFISLGKYILCCLLGHAIHGLLVLPLIYFLFTRKNPYRFLWGIMTPLATAFGTSSSSATLPLMMKCVEEKNGVAKHISRFILPIGATVNMDGAALFQCVAAVFIAQLNGVSLDFVKIITILVTATASSVGAAGIPAGGVLTLAIILEAVSLPVKDISLILAVDWLVDRSCTVLNVEGDAFGAGLLQSYVDRTKMPSSEPELIQVKNEVSLNPLPLATEEGNPLLKQYQGPTGDSSATFEKESVM
notes: as for B1
Turning to B2, the figures for the Km in data set [4], in data set [5] and in data set [6] were 47.4 ± 4.6 µM, 28.6 ± 6.4 µM and 76.3 ± 11.0 µM, respectively.
